# From patent US20260193295A1, “CILAGICIN COMPOUNDS AND METHODS OF USE THEREOF” (priority 2022, published 2026)
# Where two headings read alike, the source gives them in different places. Positions of bridges follow the written chain, without caps; N, C: chain ends. Non-standard residues stand in square brackets, D forms with d. Residues, ends and D or L forms follow the SMILES beside them. *: point of attachment. Myristoyl = CCCCCCCCCCCCCC(=O)*; dDab = NCC[C@@H](N)C(=O)O; Dab = NCC[C@H](N)C(=O)O
# How the values were obtained:
# S. aureus USA300 [1] = test: Scanning electron microscopy of treated cells; type: cell-based, Staphylococcus aureus; details: S. aureus USA300, 10x the MIC, 0-4 hours
# Protocol: S. aureus USA300 cultures at different time points from the time-kill curve analysis (FIG. 2A, 0, 1, 2, and 4 hours) were used in this study. 30 μl of each cell suspension was spotted onto 12 mm glass or Aclar film round coverslips. A drop of fixative (100 μl of 2% glutaraldehyde, 4% formaldehyde in 0.1 M sodium cacodylate buffer pH 7.2) was added on top of the coverslip which was coated with 0.1% polylysine. After 30 minutes, additional fixative was added to the dish containing the coverslips and samples were left at 4° C. overnight. Samples were gently washed three times with 0.1 M sodium cacodylate buffer (pH 7.2) for 5-10 minutes each time and postfixed with osmium tetroxide 1% in 0.1M sodium cacodylate buffer pH 7.2 for 1 hour at room temperature. After rinsing three times with buffer, samples were dehydrated in a graded series of ethanol concentrations (30%, 50%, 70%, 90%) for 10 minutes each and three times in 100% ethanol (with molecular sieves) for 15 minutes each and then further dried in a critical point drier (Tousimis Autosamdri 931, USA). Samples were coated with 10 nm of iridium using a Leica ACE600 sputter coater.
# S. aureus = test: Direct plating of S. aureus on cilagicin-containing agar plates (resistant colonies); type: cell-based, Staphylococcus aureus; details: plating S. aureus directly on cilagicin-containing agar plates
# [2] = Animal infection model (cilagicin, not further described); type: in vivo
# [3] = Isothermal titration calorimetry (ITC); type: binding; details: 25° C., DOPC vesicles
# Protocol: Isothermal titration calorimetry (ITC) The interaction of cilagicin and undecaprenyl phosphate (C55-P, Larodan, SE) or undecaprenyl diphosphate (C55-PP, Larodan, SE) was measured using ITC. Briefly, 0.1 μm of large unilamellar vesicles (LUVs) was prepared by mixing 1,2-dioleoyl-sn-glycero-3-phosphocholine (DOPC, Avanti, AL) and 0.1% of either C55-P or C55-PP in chloroform/methanol (2:1). The resulting lipid suspension was dried under argon gas for 2 hours and then rehydrated in 10 mM HEPES buffer (pH 7.5, 100 mM NaCl). The dried sample was filtered 10 times through an Avanti mini extruder (Avanti, AL) using a 0.1 μM filter membrane. ITC binding experiments were performed using a MicroCal Auto-iTC200. A vesicle suspension of 0.27 μM C55-P or 0.25 μM C55-PP and 2.5 mM DOPC in HEPES buffer was titrated into a freshly made solution of 0.1 mM cilagicin in the same buffer. The titration was conducted under the following conditions: temperature 25° C., reference power 5 uCals-1, syringe-stirring speed 750 rpm, number of injections 19, injection volume 2 μl, and time between injections 150 s. The calorimetric data obtained from the Auto-iTC200 instrument was analyzed using AFFINImeter software. Thermodynamic parameters (enthalpy (AH), entropy (AS), and the equilibrium binding constant (KD)) were calculated using a one-binding site model.
# S. aureus USA300 [4] = test: Resistance studies (daily serial passage at sub-MIC); type: cell-based, Staphylococcus aureus
# Protocol: A single colony of S. aureus USA300 was inoculated in 5 mL LB broth and grown overnight at 37° C. with continuous shaking (200 rpm). The overnight culture was then diluted 1:5,000 into fresh LB. 50 μL aliquots of dilute cells were transferred into individual wells of 96-well plates containing 50 μL of serially diluted cilagicin, amphomycin (AG Scientific, USA) or bacitracin (Sigma, USA). Plates were statically incubated at 37° C. After 24 hours, the MIC was recorded. […] The MIC was determined as described above. This process was repeated daily for 25 days. For bacitracin, the LB medium was supplemented with 50 μg/mL ZnCl2. For amphomycin, the medium was supplemented with 100 μg/mL CaCl2-2H2O. Experiments were performed three independent times (n=3).
# [5] = mice, intraperitoneal (IP) injection
# S. aureus USA300 [6] = test: Membrane depolarization assay (DiSC3(5)); type: cell-based, Staphylococcus aureus; details: S. aureus exposed to 8-fold MIC
# Protocol: The effect of cilagicin on membrane depolarization was analyzed using DiSC3(5) dye (Thermo Fisher, USA). Overnight cultures of S. aureus USA300 were harvested and resuspended in PBS (OD600 nm=0.37). Cell suspension (1 mL) and 10 μL of 4 μM DisC3(5) were pre-mixed and incubated in the dark at room temperature for 15 minutes. 50 μL of this mixture was then added to each well of black 96-well flat bottom black microtiter plates. The initial fluorescence intensity of each well was recorded using an infinite 200 PRO (Excitation/Emission=620/670 nm) at 9 second intervals for 15 minutes. 50 μL of a 1 μM solution of each test compound was then added to each well. Gramicidin (30 μM) and melittin (1 μM) were used as positive controls. DMSO was used as the vehicle control. The fluorescence intensity of each well was then monitored at 9 second intervals for another 15 minutes and plotted by Prism 9.0. All assays were performed in biological triplicate (n=3).
# [7] = test system: cell wall biosynthesis (UDP-MurNAc-pentapeptide) in S. aureus USA300; test: UDP-MurNAc-pentapeptide accumulation assay; type: cell-based, Staphylococcus aureus; details: S. aureus cultures exposed at 1xMIC
# Protocol: The effect of cilagicin on cell wall biosynthesis was investigated by tracking the accumulation UDP-MurNAc-pentapeptide in antibiotic treated cultures. Overnight S. aureus USA300 cultures were diluted in fresh LB broth and grown at 37° C. to an OD600 nm of 0.5. They were then treated with 130 μg/mL of chloramphenicol. After incubating at 37° C. for 15 minutes, 1 μg/mL of cilagicin was added. Vancomycin (10 μg/mL) and DMSO were used as positive and vehicle control, respectively. After an incubation of 60 mins, cells (0.5 mL) were harvested, and the cell pellet was resuspended in 30 μL ddH2O. The cell suspension was incubated in boiling water for 15 minutes and spun down at 15,000×g for 5 minutes. The supernatant was then analyzed by UPLC-DAD-MS (Acquity UPLC BEH C18, 2.1×50 mm, 1.7 μM, 130 Å, […] isocratic elution at 97% water:acetonitrile (ACN) for 1 minute, then from 97% to 5% water:ACN over 3 minutes, with constant 0.1% formic acid; negative ionization modes).
smiles,measurement,setting,value
CCCCCCCCCCCCCC(=O)N[C@H](CO)C(=O)N[C@@H]1C(=O)N[C@H](CCN)C(=O)N[C@@H](CC(=O)O)C(=O)NCC(=O)N[C@H](CC(N)=O)C(=O)N[C@H](CC(=O)O)C(=O)NCC(=O)N[C@@H](Cc2ccc(O)cc2)C(=O)N[C@@H](C(C)C)C(=O)N[C@@H](CCN)C(=O)N[C@@H](Cc2ccccc2)C(=O)O[C@@H]1C [Cilagicin] (Myristoyl-[dS]T[dDab]DG[dN][dD]GYV[Dab]F; ester 2-C),electron microscopy images of treated cells,S. aureus USA300 [1],cell collapse over time
same,colonies that showed more than a 2-fold increase in MIC (2 μg/mL),S. aureus,never observed
same,bacterial burden,[2],did not reduce bacterial burden
same,Kd,"[3]; read-out: dissociation constant (Kd), C55P",22 nM
same,Kd,"[3]; read-out: dissociation constant (Kd), C55PP",56 nM
same,maximum change in MIC (increase),"S. aureus USA300 [4]; S. aureus USA300, after 25 days of constant exposure",1 fold
same,cross resistance of bacitracin resistant and amphomycin resistant mutants,S. aureus USA300 [4]; S. aureus mutants raised by serial passage,neither the highly bacitracin resistant mutants nor the highly amphomycin resistant mutants that were generated showed cross resistance
same,plasma bioavailability,[5],high plasma bioavailability
same,membrane depolarization (DiSC3(5) fluorescence),S. aureus USA300 [6],No response was detected
same,accumulation of UDP-MurNAc-pentapeptide (LCMS),[7],obvious accumulation
